{"source": "paper PMC11126048", "about": "“Peptide Toxins from Antarctica: The Nemertean Predator and Scavenger Parborlasia corrugatus (McIntosh, 1876)” (Toxins, 2024)", "key": {"[1]": {"conditions": "previous experiments; read-out: EC50 liposome leakage, previous experiments; cited from earlier work", "experimental": "The ability of the Parborlasia peptides to permeabilize reconstituted E. coli phospholipid membranes was tested in a liposome-based assay. The peptides display the typical steep logarithmic AMP leakage kinetic (Figure 8). […] The 3624 Da peptide was tested in a single experiment series in this assay. The 26-residue long bee venom peptide melittin was used as a reference ..."}, "[2]": {"assay": "Bacterial membrane permeabilization assay (carboxyfluorescein leakage from liposomes)", "type": "biochemical, Escherichia coli", "conditions": "E. coli polar lipid extract liposomes, 10 µM lipid, Tris 10 mM pH 7.4, 45 min, carboxyfluorescein fluorescence; EC50 fixed at 50% of maximum leakage (Triton X-100); mean of four experiments; read-out: EC50 liposome leakage", "experimental": "Liposomes were manufactured and permeabilization-assayed as described previously. Briefly, lipid films of Escherichia coli polar lipid extract were deposited on round-bottom flask walls. The lipid films were re-suspended at 55 °C in an aqueous solution of 100 mM of 5(6)-carboxyfluorescein in Tris buffer. The suspensions were subjected to repeated extrusion through a 100 nm polycarbonate membrane in order to reduce multilamellar structures and polydispersity. Un-trapped carboxyfluorescein was removed by gel filtration. Membrane permeability was measured by monitoring carboxyfluorescein efflux from the liposomes to the external low-concentration environment, resulting in a loss of self-quenching and an increased fluorescence signal. The 96-well plates were prepared with a 2-fold serial dilution of the peptides in Tris buffer (10 mM, pH 7.4), and controls without peptides (background) and 0.16% Triton X-100 (maximum leakage). The plates were administered a liposome solution to a final lipid concentration of 10 μM in 200 µL. The effects of each peptide concentration on the liposomes were monitored for 45 min, at which point the initial leakage had largely subsided. The results shown represent the mean from four experiments (one for 3624 Da) with standard deviations and are expressed as the percent of total leakage generated with Triton X-100 and subtraction of the baseline value. […]"}}, "note": "pEC50: −log10 of the molar value. Read-outs that look alike come from different tables or passages of the source."}
{"substance": "Melittin", "values": [{"measurement": "pEC50", "setting": "[1]", "value": 6.40}, {"measurement": "pEC50", "setting": "[2]", "value": 6.52}]}
